# Data as given in patent US10583115B2, “Modulators of 14-3-3 functionality and uses thereof” (University of South Australia, priority 2014, dated 2020).
# Entries after “also recorded” stand apart in the source; their conditions may differ.
# Experiments:
# [1] = target: T1, recombinant 14-3-3ζ (Homo sapiens, UniProt P63104); test: 14-3-3 phosphorylation assay (PKA, in vitro); format: biochemical
# T1 construct: 0.5 μg of purified recombinant 14-3-3
# T1 sequence (P63104 1-245): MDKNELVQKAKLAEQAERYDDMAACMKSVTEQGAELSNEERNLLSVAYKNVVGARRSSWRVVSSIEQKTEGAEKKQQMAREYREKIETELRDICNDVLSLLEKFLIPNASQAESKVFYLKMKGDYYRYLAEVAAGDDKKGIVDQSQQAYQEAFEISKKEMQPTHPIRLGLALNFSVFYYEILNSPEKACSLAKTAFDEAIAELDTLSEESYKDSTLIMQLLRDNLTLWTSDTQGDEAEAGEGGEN
# Procedure: (§1) Substrate 14-3-3 (0.5 μg of purified recombinant 14-3-3) was added to 15 μl reaction mixture comprising 0.2 U of the PKA catalytic subunit, in the presence or absence of compounds (delivered in 0.1% v/v ethanol) in PKA reaction buffer (10 mM Tris-HCl pH 7.4, 15 mM MgCl2, 3 mM DTT) containing 25 μM ATP and 0.3 μCi [^32P] 7-ATP). Reactions were incubated at 37° C. for 15 min. After incubation, reactions were separated on 12.5% SDS-PAGE, coomassie stained and 14-3-3 phosphorylation analysed by autoradiography.
# [2] = tested on: recombinant 14-3-3ζ; test: 14-3-3 phosphorylation assay (PKA, in vitro); format: biochemical; settings: S58A versus Wt recombinant 14-3-3
# Procedure: as §1
# [3] = tested on: Jurkat cells; test: Jurkat apoptosis assays (TMRE, caspase 3, Annexin V, viability by flow cytometry); format: cell-based
# Procedure: (§2) Jurkat cells were routinely set up in apoptosis assays at 2×10^5/ml in RPMI with 0.5% FBS. After treatment, cells were stained either with 200 nM TMRE, 5 μl/ml NucView™ (Biotium), or Annexin V-FITC (Roche) for 15 mins prior to analysis by flow cytometry. Forward- and side-scatter properties were used to exclude debris and a ‘viable’ gate corresponding to the intact, PI negative cell population was used for fluorescence analysis. For A549, cells at 90% confluency were treated with RB compounds for 48 hrs in DMEM with 0.5% FBS. After treatment, cells were released with trypsin and then stained with NucView™ prior to analysis by flow cytometry.
# [4] = tested on: Jurkat cells over-expressing Bcl-2; test: Apoptosis assays in Jurkat cells over-expressing Bcl-2; format: cell-based; settings: 5 μM, 20 hours
# Procedure: Jurkat cells were obtained from the ATCC and A549 cell lines from ECACC. Jurkat cells were routinely cultured in RPMI with 10% FBS and A549 cells in DMEM with 10% FBS at 37° C. with 5% CO2 Jurkat Bcl-2 cells were generated by lentiviral transduction using a third generation lentiviral construct, as described previously (10) containing a Bcl-2α-IRES-IL2Rα encoding cassette. Transduced cells were FACS sorted for expression of IL2Rα using anti-CD25-PE (BD Pharmingen #555433) to enrich for Bcl-2 over-expressing cells and protein expression was further confirmed by immunoblotting with anti-Bcl-2 antibody (#610538; BD Transduction Laboratories, data not shown).
# as §2
# [5] = reported value; cited from earlier work
# [6] = tested on: A549 xenograft; test: A549 xenograft study; format: in vivo, BALB/c nude mice
# Procedure: All experimental procedures involving animals were conducted in accordance with the NHMRC Australian Code for the Care and Use of Animals for Scientific Purposes and with approval by the institutional animal ethics committee. BALB/c nude mice (Nu/Nu, female, 5-6 weeks old) were purchased from the Animal Resources Centre (Perth, Wash.) and maintained under pathogen-free conditions. A549 cells (5×106) in 100 μl PBS were injected subcutaneously into the flanks of the mice and the resulting tumour were measured using digital callipers. The tumour volume was calculated using the following formula: Volume=(larger diameter)×(small diameter)2/2. Once the tumours had reached 100 mm3, mice were divided into groups of 9 and each group administered either RB-012 in saline, FTY720 in saline or saline alone by intraperitoneal injection daily. Initially RB-12 and FTY720 were administered at 2 mg/kg for two days and then the dose was increased to 5 mg/kg for two weeks after which RB-012 was increased to 10 mg/kg but FTY720 maintained at 5 mg/kg. During this dosing regime tumours were monitored twice a week. Differences between samples were analysed using 2 way Anova and statistical significance was accepted at P<0.05.
# To assess the effect of RB-012 on human lung cancer growth in vivo, A549 cells were implanted subcutaneously on the flanks of Balb/C nude mice and tumours allowed to develop until they had reached a volume of 100 mm^3. RB-012 or saline was then administered daily to assess the effect on tumour growth. Initially, to reduce the cramping and encourage tolerance, 2 mg/kg RB-012 was administered for two days and then the dose was increased to 5 mg/kg daily for two weeks. Tumour volume was monitored twice a week and after two weeks of treatment mice administered RB-012 had tumours that were 20% smaller than mice receiving saline. […] The tumours on the RB-012 treated mice continued to grow more slowly and after the third week were 30% smaller than those of saline-treated mice (P<0.05). […] Therefore we were unable to increase FTY720 dosing to match RB-012.
# [7] = tested on: A549 cells; test: A549 cell viability by MTS assay; format: cell-based, human; settings: 48 hrs treatment
# Procedure: A549 cells (2500/well) were plated in 96 well trays in DMEM with 0.5% FBS and cultured at 37° C. with 5% CO2 overnight. The following day RB compounds were added and cells incubated for a further 48 hours prior to removal of the medium and replacement with MTS reagent diluted 1:6 in Dulbecco's PBS. The cells were incubated at 37° C. for a further 4 hours and the conversion of MTS to the coloured formazan compound determined by measurement of absorbance at 490 nm.
# [8] = tested on: A549 cells; test: A549 caspase-3 activation (NucView, flow cytometry); format: cell-based, human; settings: 48 hrs treatment
# Procedure: as §2
# [9] = tested on: incisional wounds of dorsal skin; test: Incisional wound healing model; format: in vivo, mice
# Procedure: A murine model of wound healing was utilised. In this model, 2×1 cm full thickness wounds were created in the dorsal skin. Wound healing was monitored using cohorts of mice humanely killed at 3, 5, 7 and 14 days post-wounding. Re-epithelialization was quantified histologically, by measuring the distance between epithelial margins sectioned in the transverse plane (Ansell D. M. et al. (2014) Wound Rep Reg 22: 281-287).
# Incisional wounding was carried out as we have previously detailed (Lees et al. (2013) The Journal of investigative dermatology 133, 1330-1339). Briefly, two full-thickness 1 cm incisions were created on the dorsal skin of 12 week old female mice and allowed to heal. RB-11 (10 μg per mouse), 4-hydroxytamoxifen (50 μg per mouse) or vehicle was applied in a total volume of 20 μl to the edge of each wound using a micropipette and allowed to absorb into the skin. At the appropriate time point (2, 5, 7, 14 and 21 days) following incisional wounding, mice were humanely killed and tissues harvested. From each mouse, one wound was completed excised and fixed in 4% formalin overnight at 4° C. Following fixation, the wound was carefully bisected at the middle across the wound, processed and embedded in paraffin for histological and immunofluorescence analysis. Wound widths were measured on scanned images of H&E stained sections using NDPView slide scanning and image quantification software. The remaining wound was bisected across the wound, snap-frozen and processed for gene expression analysis.
# 14-3-3ζ-deficient and wild-type mice were subjected to the incisional wounding protocol followed by treatment with vehicle or RB-11 (5× daily topical treatments of 11.5 μg). […] Slides were optically scanned using a Nanozoomer slide scanner (Hamamatsu, Japan) and the wound gap measured using Imagescope software (Leica Biosystems, Germany). Values were plotted on a box and whisker plot and statistical significant assessed using the Mann-Whitney test together with Dunnett's post hoc test.
# [10] = tested on: WT dermal fibroblasts; test: Collagen remodeling assay and cell morphology, wild-type dermal fibroblasts; format: cell-based, mice; settings: 10 μM
# Procedure: (§3) Rat-tail tendon collagen was prepared by extraction with 0.5 M acetic acid to a concentration of ˜2 mg/ml. 8×10^4 cells/ml WT or 14-3-3ζ KO dermal fibroblasts (labeled with either eGFP or mCherry) were embedded in this three-dimensional collagen 1 matrix and incubated in DMEM with 10% FCS and 10 mM L-Glutamine at 37° C. and 5% CO2. Detached polymerized matrix (2.5 ml) was allowed to contract for 11 days. During contraction, matrices were either left untreated or incubated with 10 μM RB-11. Media was changed on day 1 and on day 6. To calculate contraction rates and obtain information on cell morphology matrices were imaged every second day in phase contrast on a Leica DMIL LED inverted microscope with either a 4×/NA0.10 HI PLAN or a 10×/NA0.22 HI PLAN I air objective.
# (§4) Measuring the mean diameter of three matrices and normalizing the diameter to day 1 determined contraction rates. Cell morphology was described by manually counting the number of cell protrusions/cell and the number of blebbing cells.
# To determine the circularity of cells images were processed in ImageJ (NIH) according to following routine. Images were converted to 8 Bit images and cropped to an image size equivalent to […]. Grey values were thresholded to select cells. The ‘analyze particles’ function was used to determine circularity of cells. Circularity values range from 0 to 1 with ‘0’ representing rod-shaped cells and ‘1’ representing perfectly circular cells.
# 10^6 14-3-3ζ-deficient or wild-type dermal fibroblasts were embedded in 2 mg/mL % rat tail collagen plugs made with or without 10 μM RB-11. The plugs were maintained in DMEM containing 10% foetal bovine serum in a humidified incubator at 37° C. Collagen plugs were photographed on days 2, 6 and 12 and the area of the image occupied by the collage plug measured.
# [11] = tested on: 14-3-3ζ KO dermal fibroblasts; test: Collagen remodeling assay and cell morphology, 14-3-3ζ KO dermal fibroblasts; format: cell-based, mice; settings: 10 μM
# Procedure: as §3, §4
# To determine the circularity of cells images were processed in ImageJ (NIH) according to following routine. […]
# 10^6 14-3-3ζ-deficient or wild-type dermal fibroblasts were embedded in 2 mg/mL % rat tail collagen plugs made with or without 10 μM RB-11. […] Collagen plugs were photographed on days 2, 6 and 12 and the area of the image occupied by the collage plug measured.
structure (smiles),measurement,setting,value
"CCCCCCCCCCCCCCCC[N+](C)(C)C.[Br-] [CTAB, cetyltrimethylammonium bromide]",concentration above which 14-3-3 phosphorylation plateaus,[1]; dose-response study,above 25 μM
same,concentrations able to induce 14-3-3 phosphorylation,[1]; dose-response study,low micromolar concentrations
same,concentration above which phosphorylation of 14-3-3 increased dramatically,[1]; potentially non-specific protein denaturation,above 75 μM
same,rendering 14-3-3 phosphorylatable (phosphorylation of 14-3-3 by PKA in vitro),[1]; recombinant 14-3-3 and PKA catalytic subunit,dose-dependent increase in 14-3-3 phosphorylation
same,phosphorylation site of 14-3-3ζ revealed,[2],Ser58
same,caspase-3 activation,"[3]; 5 μM, 20 hours",induce caspase-3 activation
same,cell death in Bcl-2 over-expressing cells,[4],protected from CTAB-induced cell death
same,critical micelle concentration,[5],0.92 mM
CCCCCCCCc1ccc(CCC(N)(CO)CO)cc1 [FTY720],tumour size versus saline,[6]; 5 mg/kg daily i.p.,no reduction in tumour size; also recorded: did not elicit a reduction in tumour growth
same,adverse effects at 10 mg/kg,[6]; 10 mg/kg,"severe cramping with cardiac arrhythmia, with fatality in some cases"
same,tolerability at 10 mg/kg,"[6]; mouse, in vivo",not tolerated
CCCCCCCCc1ccc(CC[N+]2(C)CCCC2)cc1 [RB-011],"ED50 for apoptosis induction, in words",[3],low micromolar range
same,Annexin V presentation,"[3]; 5 μM, 24 hours",Annexin V presentation
same,cell viability,"[3]; 5 μM, 24 hours",loss of viability
same,apoptosis as determined by caspase-3 activation,"[3]; 5 μM, within 5 hours",readily able to activate apoptosis
same,EC50,"[3]; Homo sapiens, Jurkat, 5 h, read-out: ED50 for apoptosis induction (initial activation of caspase-3)",2 µM
same,"cell viability / growth and survival (MTS), in words",[7],inhibited
same,IC50,"[7]; Homo sapiens, A549",7 µM
same,caspase-3 activation,[8],induce caspase activation
same,rate of re-epithelialization,"[9]; WT mice, topical 10 μg [25 nmol] once daily for 7 days",increased the rate of re-epithelialization
same,collagen production around wound margins (SHG),"[9]; WT mice, topical 10 μg once daily for 7 days",elevated collagen production
same,wound healing (wound width),"[9]; wild-type mice, 5× daily topical treatments of 11.5 μg, day 5 following wounding",hastened wound healing
same,cell morphology by circularity analysis,[10],rounded morphology
same,cell morphology in 3D collagen organotypic matrices (live-cell imaging),[10],contracted morphology
same,collagen remodeling ability (contraction of collagen plug/matrix),[10]; listed as RB-11,unable to remodel the collagen plug; also recorded: significantly reduced collagen remodeling ability
same,cell morphology by circularity analysis,[11],no further change in the morphology
same,ability to remodel a collagen plug,[11]; compared to wild type fibroblasts,reduced ability to remodel a collagen plug
